Target: T1, F1F0-ATP synthase (ATPase, complex V) (Rattus norvegicus, UniProt P05504+Q06645)
T1 construct: gene Atp5mc1; native complex from brain mitochondria (male Wistar rat), immunocaptured in microplate wells (Abcam ab109714 kit); mature c subunit is identical from Atp5mc1/Atp5mc2/Atp5mc3; with ATP synthase F(1) complex subunit alpha, mitochondrial; ATP synthase F(1) complex catalytic subunit beta, mitochondrial; ATP synthase F(1) complex subunit gamma, mitochondrial; ATP synthase F(1) complex subunit delta, mitochondrial; ATP synthase F(1) complex subunit epsilon, mitochondrial; ATP synthase peripheral stalk subunit OSCP, mitochondrial; ATP synthase peripheral stalk-membrane subunit b, mitochondrial
Assay: ATP hydrolysis coupled to NADH oxidation, absorbance […] nm, immunocapture kit
Type: biochemical

With `COc1nc2ccc(Br)cc2cc1[C@@H](c1ccccc1)[C@@](O)(CCN(C)C)c1cccc2ccccc12` [BDQ, Bedaquiline] the inhibition at 5 µM was roughly 50%.
